# Experiments:
# Type in all cases: in vivo
# Glycine max (GLXMA) = assay: Post-emergence effects on crop plants, section F (Table F4); details: application rate 80 g/ha; for percent crop plant damage at 80 g/ha: Glycine max, 504 h, read-out: post-emergence activity against GLXMA in %
# Procedure, shortened: (§1)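 Post-emergence greenhouse test: crops grown 2 to 3 weeks in sandy loam, sprayed at 320 g/ha or less in 600 l water/ha with 0.5% additive. Injury rated visually as percent relative to controls roughly three weeks later.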
# Lolium rigidum (LOLRI) [1] = assay: Herbicidal pre-emergence action, section C (Table C5); details: visual grading after ca. 3 weeks; for pest or weed control at 80 g/ha / pest or weed control at 320 g/ha: Lolium rigidum, pre-emergence, 504 h, read-out: pre-emergence activity against LOLRI in %; for pest or weed control at 80 g/ha: application rate 80 g/ha
# Description: (§2) Seeds of mono- and dicotyledonous weed plants and crop plants were sown, in plastic or organic planting pots, in sandy loam and covered with soil. The compounds according to the invention, formulated in the form of wettable powders (WP) or as emulsifiable concentrates (EC), were applied to the surface of the covering soil as aqueous suspension or emulsion, with the addition of 0.5% of an additive, at an application rate of 600 l of water/ha (converted). Following treatment, the pots were placed in a greenhouse and kept under optimum growth conditions for the test plants. The visual grading of the damage to the test plants was carried out after ca. 3 weeks in comparison to untreated controls (herbicidal effect in percent (%): 100% effect=plants have died off, 0% effect=as control plants).
# Zea mays (ZEAMX) = assay: Post-emergence effects on crop plants, section F (Table F1); details: for percent crop plant damage (phytotoxicity) on Zea mays, post-emergence at 320 g/ha / percent crop plant damage (phytotoxicity) on Zea mays, post-emergence at 80 g/ha: 504 h, read-out: post-emergence activity against ZEAMX in %; for percent crop plant damage (phytotoxicity) on Zea mays, post-emergence at 320 g/ha / post-emergence activity against ZEAMX in %: application rate 320 g/ha; for post-emergence activity against ZEAMX in %: crop plant damage; for percent crop plant damage (phytotoxicity) on Zea mays, post-emergence at 80 g/ha: application rate 80 g/ha
# Procedure, shortened: as §1
# Lolium rigidum (LOLRI) [2] = assay: Herbicidal pre-emergence action, section A (Table A5); details: visual grading after ca. 3 weeks vs untreated controls; for pre-emergence activity against LOLRI in % / pest or weed control at 320 g/ha: application rate 320 g/ha
# Procedure, shortened: (§3)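 Visual scoring at approximately 3 weeks, relative to untreated pots, gave percent effect after compounds in WP or EC form were sprayed onto covering soil of sown seeds (sandy loam) in water with 0.5% additive at 600 l/ha, then kept in greenhouse.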
# Poa annua (POAAN) = assay: Herbicidal post-emergence action, section B (Table B7); details: visual rating about 3 weeks after treatment vs untreated controls; for pest or weed control at 1280 g/ha / pest or weed control at 320 g/ha: Poa annua, post-emergence, 504 h, read-out: post-emergence activity against POAAN in %
# Procedure, shortened: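 Scores are visual % activity relative to untreated plants (0% = like control, 100% = dead), taken about 3 weeks after spraying. Compounds, as WP or EC in water with 0.5% additive at 600 L/ha, went onto one-leaf-stage weeds grown from seed in sandy loam under greenhouse conditions.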
# Veronica persica (VERPE) = assay: Herbicidal pre-emergence action, section A (Table A10); details: for pre-emergence activity against VERPE in % / pest or weed control at 1280 g/ha: application rate 1280 g/ha
# Procedure, shortened: as §3
# [3] = system: Triticum aestivum (TRZAS); assay: Pre-emergence effects on crop plants, section D (Table D2); details: visual grading after ca. 3 weeks
# Procedure, shortened: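 Seeds sown in sandy loam and covered with soil; WP or EC formulations applied to the covering soil surface as aqueous suspension/emulsion with 0.5% additive at 600 l water/ha, at 320 g/ha or below. Greenhouse growth; visual damage scored after ca. 3 weeks versus untreated controls (0% = as control, 100% = dead).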
# [4] = system: Abutilon theophrasti (ABUTH); assay: Herbicidal pre-emergence action, section C (Table C1); details: Abutilon theophrasti, pre-emergence, 504 h; application rate 320 g/ha; visual grading after ca. 3 weeks vs untreated controls; read-out: pre-emergence activity against ABUTH in %
# Description: as §2
# [5] = system: Abutilon theophrasti (ABUTH); assay: Herbicidal post-emergence action, section E (Table E1); details: Abutilon theophrasti, post-emergence, 504 h; application rate 320 g/ha; assessed visually after ca. 3 weeks; read-out: post-emergence activity against ABUTH in %
# Description: Seeds of mono- and dicotyledonous weed plants and crop plants were sown, in plastic or organic planting pots, in sandy loam, covered with soil and grown in a greenhouse under controlled growth conditions. 2 to 3 weeks after sowing, the test plants were sprayed in the single-leaf stage. The compounds according to the invention, formulated in form of wettable powders (WP) or as emulsifiable concentrates (EC), were sprayed onto the green plant parts as aqueous suspension or emulsion, with the addition of 0.5% of an additive, at an application rate of 600 l of water/ha (converted). The test plants were placed in the greenhouse for ca. 3 weeks under optimum growth conditions, and then the effect of the preparations was assessed visually in comparison with untreated controls (herbicidal effect in percent (%): 100% effect=plants have died off, 0% effect=as control plants).
# [6] = Lolium rigidum, pre-emergence, 504 h, read-out: pre-emergence activity against LOLRI in %
# [7] = Veronica persica, 504 h, read-out: pre-emergence activity against VERPE in %
smiles,measurement,setting,value
"Fc1ccccc1-c1nc2c(cc1Br)SCN2 [Example I-001, 6-bromo-5-(2-fluorophenyl)-2,3-dihydro[1,3]thiazolo[4,5-b]pyridine]",percent crop plant damage at 80 g/ha,Glycine max (GLXMA),20%
same,pest or weed control at 80 g/ha,Lolium rigidum (LOLRI) [1],100%
same,"percent crop plant damage (phytotoxicity) on Zea mays, post-emergence at 320 g/ha",Zea mays (ZEAMX),10%
COC(=O)CCC(=O)N1CSc2cc(Cl)c(-c3ccccc3F)nc21 [Example I-003],pre-emergence activity against LOLRI in %,Lolium rigidum (LOLRI) [2],100%
same,post-emergence activity against GLXMA in %,Glycine max (GLXMA); crop plant damage,0%
same,post-emergence activity against POAAN in %,Poa annua (POAAN); application rate 320 g/ha,100%
same,pre-emergence activity against VERPE in %,Veronica persica (VERPE),90%
same,pre-emergence activity against TRZAS in % (crop plant damage),[3]; application rate 80 g/ha,20%
same,post-emergence activity against ZEAMX in %,Zea mays (ZEAMX),0%
"Cc1cc2c(nc1-c1ccccc1F)NCS2 [Example I-007, 5-(2-fluorophenyl)-6-methyl-2,3-dihydro[1,3]thiazolo[4,5-b]pyridine]",pest or weed control at 320 g/ha,Lolium rigidum (LOLRI) [2]; [6],100%
same,pest or weed control at 1280 g/ha,Poa annua (POAAN); application rate 1280 g/ha,90%
same,pest or weed control at 320 g/ha,[4],80%
same,pest or weed control at 1280 g/ha,Veronica persica (VERPE); [7],90%
same,pest or weed control at 80 g/ha,Lolium rigidum (LOLRI) [1],100%
same,pest or weed control at 320 g/ha,[5],80%
same,"percent crop plant damage (phytotoxicity) on Zea mays, post-emergence at 80 g/ha",Zea mays (ZEAMX),0%
BN1CSc2cc(Br)c(-c3ccccc3C)nc21 [Example I-011],pre-emergence activity against LOLRI in %,Lolium rigidum (LOLRI) [2],100%
same,post-emergence activity against POAAN in %,Poa annua (POAAN); application rate 1280 g/ha,90%
same,pre-emergence activity against VERPE in %,Veronica persica (VERPE),90%
same,pre-emergence activity against LOLRI in %,Lolium rigidum (LOLRI) [1]; application rate 320 g/ha,100%
same,post-emergence activity against ZEAMX in %,Zea mays (ZEAMX),0%
"Cc1cc2c(nc1-c1cccc(F)c1F)NCS2 [Example I-029, 5-(2,3-difluorophenyl)-6-methyl-2,3-dihydro[1,3]thiazolo[4,5-b]pyridine]",pest or weed control at 320 g/ha,Lolium rigidum (LOLRI) [2]; [6],100%
same,pest or weed control at 1280 g/ha,Poa annua (POAAN); application rate 1280 g/ha,90%
same,pest or weed control at 1280 g/ha,Veronica persica (VERPE); [7],90%
same,pest or weed control at 320 g/ha,Lolium rigidum (LOLRI) [1]; application rate 320 g/ha,100%
same,"percent crop plant damage (phytotoxicity) on Zea mays, post-emergence at 80 g/ha",Zea mays (ZEAMX),0%
"Clc1ccccc1-c1nc2c(cc1Br)SCN2 [Example I-041, 6-bromo-5-(2-chlorophenyl)-2,3-dihydro[1,3]thiazolo[4,5-b]pyridine]",pest or weed control at 1280 g/ha,"Lolium rigidum (LOLRI) [2]; Lolium rigidum, pre-emergence, 504 h, application rate 1280 g/ha, read-out: pre-emergence activity against LOLRI in %",100%
same,percent crop plant damage at 80 g/ha,Glycine max (GLXMA),0%
same,pest or weed control at 320 g/ha,Poa annua (POAAN); application rate 320 g/ha,90%
same,pest or weed control at 320 g/ha,"Veronica persica (VERPE); Veronica persica, 504 h, application rate 320 g/ha, read-out: pre-emergence activity against VERPE in %",90%
same,pre-emergence activity against TRZAS in % (crop plant damage),[3]; application rate 320 g/ha,20%
same,"percent crop plant damage (phytotoxicity) on Zea mays, post-emergence at 320 g/ha",Zea mays (ZEAMX),20%
CCc1ccccc1-c1nc2c(cc1C)[S+]([O-])CN2 (stereo not shown) [Example I-047],percent crop plant damage at 80 g/ha,Glycine max (GLXMA),0%
same,pest or weed control at 320 g/ha,Poa annua (POAAN); application rate 320 g/ha,90%
same,pre-emergence activity against TRZAS in % (crop plant damage),[3]; application rate 320 g/ha,10%
same,pest or weed control at 320 g/ha,Lolium rigidum (LOLRI) [1]; application rate 320 g/ha,100%
same,"percent crop plant damage (phytotoxicity) on Zea mays, post-emergence at 320 g/ha",Zea mays (ZEAMX),0%
